Laboratory results as given in patent US4968671A, “Therapeutic agents for ischemic heart diseases” (Yamanouchi Pharmaceutical Co., Ltd., priority 1987, dated 1990).

Legend:
mice = experiment: acute toxicity (LD50), intraperitoneal injection to mice; format: in vivo
dogs = experiment: inhibitory action on ventricular extra systole on reperfusion of the occluded coronary artery in anesthetized open-chest dogs; format: in vivo; conditions: 60 min coronary occlusion then 20 min reperfusion, 300 mg/kg i.v. + 10 mg/kg/min i.v., mean ± standard deviation, P < 0.05 vs control group (35.9 ± 10.2)
Method: The inhibitory action of glutathione monoisopropyl ester on ventricular extra systole occurred when the occluded coronary artery was reperfused in dogs was tested with the following method.
Measurement was carried out by partially modifying Gibsons' method (J. Cardiovasc. Pharmacol., 5, 517-524, 1983). Dogs (Mongrel, female and male, 9-18 kg) were anesthetized with pentobarbital, the chest was opened under artificial respiration. And then the left coronary artery anterior descending segmental branch was occluded for 60 minutes. Thereafter, a reperfusion was carried out for 20 minutes and then blood pressure and heart rate as well as the heart surface electrocardiogram were measured.
The glutathione monoisopropyl ester (GE) was intravenously administered in a single dose of 300 mg/kg 30 minutes after the coronary artery occlusion and continuous injection was carried out in the amount of 10 mg/kg/min, i.v., until the completion of this test from 40 minutes after the coronary artery occlusion. The effect of an agent was evaluated by the number of the ventricular extra systole for a minute, which had been occured during the time period of reperfusion.

CC(C)OC(=O)CNC(=O)[C@H](CS)NC(=O)CC[C@H](N)C(=O)O [GE, isopropyl r-L-glutamyl-L-cysteinyl glycinate]
acute toxicity (LD50) (mice): approximately 5.3 g/kg | Number of ventricular extra systole (dogs): 10.0 ± 5.6 counts/min
